Like-named read-outs stand apart in the source and are kept apart here. Non-standard residues stand in square brackets, D forms with d. Residues, ends and D or L forms follow the SMILES beside them. No end group written: not given here. *: point of attachment. Heptanoyl = CCCCCCC(=O)*; Pentanoyl = CCCCC(=O)*
What was measured:
[1] = system: S. aureus (ATCC 29213); type: cell-based; settings: ATCC 29213, 20 h
[2] = system: E. faecium; settings: 20 h
[3] = system: P. aeruginosa; settings: 20 h
[4] = system: K. pneumoniae; settings: 20 h
[5] = system: S. aureus (ATCC 29213, MSSA); settings: ATCC 29213, 20 h
[6] = system: E. cloacae; settings: 20 h
[7] = system: E. coli (K-12 MG1655)
[8] = system: A. baumannii; settings: 20 h
[9] = system: human erythrocytes; experiment: Hemolytic activity; type: cell-based; settings: 15% suspension in PBS, 1 h, 37 °C, absorbance 540 nm, highest tested concentration 100 µM
Procedure: The hemolytic activity of the lipopeptides was investigated by collecting blood from healthy volunteers in heparinized vacutainers. Briefly, the blood was centrifuged at 600 × g for 5 min and the erythrocyte pellet was washed three times in PBS. The cells were then suspended in PBS and added to 96-well plates (15% erythrocyte suspension/well), containing the lipopeptides with two-fold serial dilution. The plates were incubated for 1 h at 37 °C followed by centrifugation for 5 min at 900×g and absorbance measurement of the supernatants at 540 nm. Hemolytic activity (%) was calculated by subtracting the negative control from all values and normalization against the positive control (0.5% Triton X-100), that was set to 100%. All experiments, each in duplicate, were repeated three times.

[10] = system: E. coli (K-12 MG1655); type: cell-based; settings: K-12, 20 h
Procedure: The broth microdilution method was used to determine minimal inhibitory concentration (MIC) and minimal bactericidal concentration (MBC), in accordance with the EUCAST standards for the broth microdilution method. Two-fold serial dilutions of the lipopeptides were used, and the final concentrations ranged from 0.19 to 100 µM. In brief, two-fold serial dilutions of the lipopeptides were performed in a 96-well plate in PBS, with a final volume of 100 µl per well, after which 100 µl of LB-broth media containing approximately 5 × 10^5 CFU/ml of bacteria was added to each well. The plate was then incubated for 20 h in 37 °C on a shaker (400 rpm). The effect of lipopeptide-antibiotic combinations was investigated by performing checkerboard assays. The assays were performed in accordance with the MIC and MBC tests conducted above, but with horizontal and longitudinal two-fold serial dilutions of the tested compounds. […] The fractional inhibitory concentration (FIC) and fractional bactericidal concentration (FBC) were calculated by the equation (MIC or MBC of peptide in combination/MIC or MBC of peptide alone) + (MIC or MBC of antibiotic in combination/MIC or MBC of antibiotic alone). Synergy was defined as FIC/FBC ≤ 0.5, additive when 0.5 < FIC/FBC ≤ 1, indifferent when 1 < FIC/FBC < 2 and antagonistic when FIC/FBC ≥ 2. All experiments were repeated at least three times.

[11] = Carboxyfluorescein release assay, bacterial liposome model; type: biochemical; settings: 75:25 POPC:POPG liposomes, 25 µM lipid, 10 mM PBS pH 7.4, 10^–5–10^2 µM peptide, 60 min, fluorescence, Hill fit, n = 3; read-out: EC50 Bacterial (concentration that triggers 50% CF release)
How it was run: (§1)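 CF-loaded extruded 0.1 µm unilamellar liposomes: bacterial POPC:POPG 75:25, mammalian POPC:POPS:Chol 65:5:30. Liposomes at 25 µM lipid in PBS pH 7.4 incubated with peptide (10^–5–10^2 µM; n = 3), fluorescence read every 2.5 min for 1 h. Release normalized to 1% Triton X-100; EC50 from Hill-1 fit.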

[12] = Carboxyfluorescein release assay, mammalian liposome model; type: biochemical; settings: 65:5:30 POPC:POPS:Chol. liposomes, 25 µM lipid, 10 mM PBS pH 7.4, 10^–5–10^2 µM peptide, 60 min, fluorescence, Hill fit, n = 3; read-out: EC50 Mammalial (concentration that triggers 50% CF release)
How it was run: as §1

[13] = Dynamic light scattering, critical aggregation concentration; type: physicochemical; settings: DLS scattering intensity at 90°, 10 mM PBS pH 7.4, serial dilution 100 µM to 0.01 nM, 22 °C, average of 10 runs of 30 s; estimated
Procedure: Lipopeptide aggregation was evaluated on a ALV/CGS-8F Platform (ALV-GmbH, Langen, Germany) equipped with a […] He–Ne laser. Scattered light was collected at 90°. PBS (10 mM, pH 7.4) was chosen as buffer, and filtered with a 0.22 µm filter prior to use. The samples were prepared in a cylindrical glass cuvette immersed in refractive-index matching toluene. The peptides were serially diluted between 100 µM and 0.01 nM, sonicated for 1 min and incubated for 5 min at 22 °C and vortexed prior to measuring. The temperature was controlled throughout the experiment with the use of a circulating water bath. Data were analysed with ALV-Correlator (Version 3.0, ALV-GmbH, Langen, Germany) software, and the scattering intensity was obtained through an average of 10 consecutive 30 s runs.

[14] = Table 3, K-12 MG1655, broth microdilution, 50:50 PBS/LB-broth, 200 µL, 20 h, 37 °C

Row | Compound | S. aureus MIC, lipopeptide alone [1] [µM] | MBC [2] [µM] | MIC [2] [µM] | MBC [3] [µM] | MIC [3] [µM] | MBC [4] [µM] | MIC [4] [µM] | S. aureus MBC [5] [µM] | S. aureus MIC [5] [µM] | MBC [6] [µM] | MIC [6] [µM] | E. coli MBC [7, 14] [µM] | E. coli MIC [7, 14] [µM] | MBC [8] [µM] | MIC [8] [µM] | HC, hemolytic concentration at 5% hemolytic activity [9] [µM] | E. coli MIC, lipopeptide alone [10] [µM] | EC50 [11] [nM] | EC50 [12] [nM] | critical aggregation concentration (CAC) [13] [µM] | further results
1 | CCCCC(=O)N[C@H](CC(C)C)C(=O)NCC(=O)N[C@H](CC(C)C)C(=O)N[C@H](CCCCN)C(=O)N[C@H](CC(C)C)C(=O)N[C@H](CC(C)C)C(=O)N[C@H](Cc1c[nH]c2ccccc12)C(=O)N[C@H](CO)C(=O)N[C@H](C)C(=O)N[C@H](Cc1ccc(O)cc1)C(=O)N[C@H](CCCCN)C(=O)N[C@H](Cc1c[nH]cn1)C(=O)N[C@H](CCCNC(=N)N)C(=O)N[C@H](CCCCN)C(=O)N[C@@H](C(=O)N[C@H](CC(C)C)C(N)=O)[C@H](C)O [D-6-C5-Leu] (Pentanoyl-[dL]G[dL][dK][dL][dL][dW][dS][dA][dY][dK][dH][dR][dK][dT][dL]-NH2) | 3.1 | 3.1 | 3.1 | 25 | 12.5 | 25 | 12.5 | 3.1 | 3.1 | 50 | 25 | 3.1 | 3.1 | 3.1 | 3.1 | > 100 | 3.1 | 130 | 4080 |  | S. aureus MBC, lipopeptide alone [1]: 3.1 µM; E. coli MBC, lipopeptide alone [10]: 3.1 µM
2 | CCCCC(=O)N[C@H](CC(C)C)C(=O)NCC(=O)N[C@@H](C(=O)N[C@H](CCCCN)C(=O)N[C@@H](C(=O)N[C@H](CC(C)C)C(=O)N[C@H](Cc1c[nH]c2ccccc12)C(=O)N[C@H](CO)C(=O)N[C@H](C)C(=O)N[C@H](Cc1ccc(O)cc1)C(=O)N[C@H](CCCCN)C(=O)N[C@H](Cc1c[nH]cn1)C(=O)N[C@H](CCCNC(=N)N)C(=O)N[C@H](CCCCN)C(=O)N[C@@H](C(=O)N[C@@H](C(N)=O)[C@H](C)CC)[C@H](C)O)[C@H](C)CC)[C@H](C)CC [D-6-C5] (Pentanoyl-[dL]G[dI][dK][dI][dL][dW][dS][dA][dY][dK][dH][dR][dK][dT][dI]-NH2) | 3.1 | 3.1 | 3.1 | 50 | 25 | 50 | 25 | 6.2 | 3.1 | 50 | 25 | 3.1 | 3.1 | 3.1 | 3.1 | > 100 | 3.1 | 120 | 13100 |  | 
3 | CCCCCCC(=O)N[C@@H](CC(C)C)C(=O)NCC(=O)N[C@H](C(=O)N[C@@H](CCCCN)C(=O)N[C@H](C(=O)N[C@@H](CC(C)C)C(=O)N[C@@H](Cc1c[nH]c2ccccc12)C(=O)N[C@@H](CO)C(=O)N[C@@H](C)C(=O)N[C@@H](Cc1ccc(O)cc1)C(=O)N[C@@H](CCCCN)C(=O)N[C@@H](Cc1c[nH]cn1)C(=O)N[C@@H](CCCNC(=N)N)C(=O)N[C@@H](CCCCN)C(=O)N[C@H](C(=O)N[C@H](C(N)=O)[C@@H](C)CC)[C@@H](C)O)[C@@H](C)CC)[C@@H](C)CC [L-6-C7] (Heptanoyl-LGIKILWSAYKHRKTI-NH2) |  |  |  |  |  |  |  | 3.1 | 3.1 |  |  | 6.2 | 6.2 |  |  | 80 |  | 220 | 1950 | 0.8 | 
4 | LGIKILWSAYKHRKTI-NH2 [L-6] |  |  |  |  |  |  |  | > 100 | > 100 |  |  |  |  |  |  |  |  | 150 | > 100000 | 10 | E. coli MBC ([7]; K-12, 20 h): > 100 µM; E. coli MIC ([7]; K-12, 20 h): > 100 µM

Source: article PMC10011573, “Development of novel broad-spectrum antimicrobial lipopeptides derived from plantaricin NC8 β” (Scientific Reports, 2023)
